Data taken from US20090025102A1, “GLUTAMATE RECEPTOR […] AND PROTEINS FOR ENHANCING NITROGEN U[…] CROP PLANTS” (PIONEER HI-BRED INTERNATIONAL, INC., priority 2007, published 2009).

Columns and labels:
[1] = test system: PSD1.1 and PSD2.1 KO plants; test: Growth assay of PSD1.1 and PSD2.1 KO plants on media containing DNQX; type: in vivo, Arabidopsis; settings: 200 or 400 μM DNQX and 3% sucrose, 7 days
Protocol: Growth assays for the PSD1.1 and PSD2.1 KO plants were undertaken. Plants were sown on different media, refrigerated overnight, then incubated in the standard growth conditions for 7 days. The short vernalization was used as that is what has been typically used in this lab for DNQX experiments. […] When grown in the presence of 3% sucrose, both on MS and media lacking nitrogen PSD1.1 and PSD2.1 looks similar to Col-0.

AtGLR-AP knockout lines [2] = test: Germination bioassay with the iGLR antagonist DNQX; type: in vivo, Arabidopsis
Protocol: Therefore we used a similar approach to test the sucrose sensitivity of the homozygous AtGLR-APs lines described above by conducting vertical plate assays on MS plates minus N and supplemented with increasing concentrations of sucrose. […] We also developed a short term N-sensitivity bioassay.
Bioassay, iGLR Antagonist DNQX
However, germination of the GRASP2.1-1 line was not affected when DNQX was added to the media.

AtGLR-AP knockout lines [3] = settings: lines deficient in AtGLR1.1, uM 200, previously demonstrated; cited from earlier work

## O=c1[nH]c2cc([N+](=O)[O-])c([N+](=O)[O-])cc2[nH]c1=O [DNQX, 6,7-dinitroquinoxaline-2,3-[1H,4H]-dione]
[1]
  difference between Col-0 and the two KO lines: No obvious difference
AtGLR-AP knockout lines [2]; GRASP2.1-1 line
  germination when DNQX was added to the media: not affected
AtGLR-AP knockout lines [2]; GRASP2.3-6 line
  germination on media supplemented DNQX: noticeable reduction in germination
AtGLR-AP knockout lines [2]; PSD1.1 knockout, 200 uM DNQX
  decrease in germination: 35-40%
AtGLR-AP knockout lines [3]
  sensitivity of Arabidopsis lines deficient in AtGLR1.1 to the iGLR antagonist: sensitive
